# The source made the active and inactive calls. The calls are words filed in the database; no cut-off is given here.
# Assays:
# Assay type in all cases: functional
# [1] = system: Pichia kudriavzevii; assay: Fungicidal activity against Candida krusei ATCC 6258 bloodstream forms after 48 hrs by M27-A3 microdilution method
# [2] = system: Pichia kudriavzevii; assay: Fungicidal activity against Candida krusei CK1 bloodstream forms after 24 hrs by time-kill analysis; conditions: CK1, 24 h
# [3] = system: Pichia kudriavzevii; assay: Antifungal activity against Candida krusei CK1 bloodstream forms after 24 hrs by time-kill analysis; conditions: CK1, 24 h
# [4] = system: Pichia kudriavzevii; assay: Antifungal activity against Candida krusei ATCC 6258 bloodstream forms assessed as minimum concentration producing >= 50% growth reduction after 48 hrs by M27-A3 microdilution method; conditions: ATCC 6258, 48 h
# [5] = system: Pichia kudriavzevii; assay: Antifungal activity against Candida krusei ATCC 6258 bloodstream forms assessed as time to achieve 90% fungal growth reduction at 32 mg/L by time-kill analysis
# [6] = system: Pichia kudriavzevii; assay: Antifungal activity against Candida krusei ATCC 6258 bloodstream forms assessed as time to achieve 50% fungal growth reduction at 2 mg/L by time-kill analysis
# [7] = system: Pichia kudriavzevii; assay: Antifungal activity against Candida krusei ATCC 6258 bloodstream forms assessed as time to achieve 90% fungal growth reduction at 0.12 mg/L by time-kill analysis
# [8] = system: Pichia kudriavzevii; assay: Antifungal activity against Candida krusei ATCC 6258 bloodstream forms assessed as time to achieve 90% fungal growth reduction at 0.5 mg/L by time-kill analysis
# [9] = system: Pichia kudriavzevii; assay: Antifungal activity against Candida krusei ATCC 6258 bloodstream forms after 24 hrs by time-kill analysis; conditions: ATCC 6258, 24 h
# [10] = system: Pichia kudriavzevii; assay: Fungicidal activity against Candida krusei ATCC 6258 bloodstream forms after 24 hrs by time-kill analysis; conditions: ATCC 6258, 24 h
# [11] = system: Pichia kudriavzevii; assay: Antifungal activity against Candida krusei ATCC 6258 bloodstream forms assessed as minimum concentration producing >= 50% growth reduction after 24 hrs by M27-A3 microdilution method; conditions: ATCC 6258, 24 h
# [12] = system: Pichia kudriavzevii; assay: Antifungal activity against Candida krusei EU220 bloodstream forms after 24 hrs by time-kill analysis; conditions: EU220, 24 h
# [13] = system: Pichia kudriavzevii; assay: Antifungal activity against Candida krusei ATCC 6258 bloodstream forms assessed as time to achieve 99% fungal growth reduction at 0.5 mg/L by time-kill analysis
# [14] = system: Pichia kudriavzevii; assay: Fungicidal activity against Candida krusei EU220 bloodstream forms after 24 hrs by time-kill analysis; conditions: EU220, 24 h
# [15] = system: Pichia kudriavzevii; assay: Antifungal activity against Candida krusei CK2 bloodstream forms after 24 hrs by time-kill analysis; conditions: CK2, 24 h
# [16] = system: Pichia kudriavzevii; assay: Antifungal activity against Candida krusei ATCC 6258 bloodstream forms assessed as time to achieve 99.9% fungal growth reduction at 0.12 mg/L by time-kill analysis
# [17] = system: Pichia kudriavzevii; assay: Antifungal activity against Candida krusei CY118 bloodstream forms after 24 hrs by time-kill analysis; conditions: CY118, 24 h
# [18] = system: Pichia kudriavzevii; assay: Antifungal activity against Candida krusei ATCC 6258 bloodstream forms assessed as time to achieve 50% fungal growth reduction at 32 mg/L by time-kill analysis
# [19] = system: Pichia kudriavzevii; assay: Fungicidal activity against Candida krusei CK2 bloodstream forms after 24 hrs by time-kill analysis; conditions: CK2, 24 h
# [20] = system: Pichia kudriavzevii; assay: Antifungal activity against Candida krusei ATCC 6258 bloodstream forms assessed as minimum concentration producing >= 100% growth reduction after 48 hrs by M27-A3 microdilution method; conditions: ATCC 6258, 48 h
# [21] = system: Pichia kudriavzevii; assay: Antifungal activity against Candida krusei EU123 bloodstream forms after 24 hrs by time-kill analysis; conditions: EU123, 24 h
# [22] = system: Pichia kudriavzevii; assay: Fungicidal activity against Candida krusei CK6 bloodstream forms after 24 hrs by time-kill analysis; conditions: CK6, 24 h
# [23] = system: Pichia kudriavzevii; assay: Antifungal activity against Candida krusei ATCC 6258 bloodstream forms assessed as time to achieve 99.9% fungal growth reduction at 0.5 mg/L by time-kill analysis
# [24] = system: Pichia kudriavzevii; assay: Antifungal activity against Candida krusei ATCC 6258 bloodstream forms assessed as time to achieve 99% fungal growth reduction at 0.12 mg/L by time-kill analysis
# [25] = system: Pichia kudriavzevii; assay: Antifungal activity against Candida krusei ATCC 6258 bloodstream forms assessed as time to achieve 90% fungal growth reduction at 2 mg/L by time-kill analysis
# [26] = system: Pichia kudriavzevii; assay: Antifungal activity against Candida krusei CK6 bloodstream forms after 24 hrs by time-kill analysis; conditions: CK6, 24 h
# [27] = system: Pichia kudriavzevii; assay: Antifungal activity against Candida krusei ATCC 6258 bloodstream forms assessed as time to achieve 50% fungal growth reduction at 8 mg/L by time-kill analysis
# [28] = system: Pichia kudriavzevii; assay: Antifungal activity against Candida krusei ATCC 6258 bloodstream forms assessed as time to achieve 99.9% fungal growth reduction at 8 mg/L by time-kill analysis
# [29] = system: Pichia kudriavzevii; assay: Antifungal activity against Candida krusei ATCC 6258 bloodstream forms assessed as time to achieve 99% fungal growth reduction at 32 mg/L by time-kill analysis
# [30] = system: Pichia kudriavzevii; assay: Antifungal activity against Candida krusei ATCC 6258 bloodstream forms assessed as time to achieve 50% fungal growth reduction at 0.12 mg/L by time-kill analysis
# [31] = system: Pichia kudriavzevii; assay: Fungicidal activity against Candida krusei EU123 bloodstream forms after 24 hrs by time-kill analysis; conditions: EU123, 24 h
# [32] = system: Pichia kudriavzevii; assay: Antifungal activity against Candida krusei ATCC 6258 bloodstream forms assessed as minimum concentration producing >= 100% growth reduction after 24 hrs by M27-A3 microdilution method; conditions: ATCC 6258, 24 h
# [33] = system: Pichia kudriavzevii; assay: Antifungal activity against Candida krusei CK18 bloodstream forms after 24 hrs by time-kill analysis; conditions: CK18, 24 h
# [34] = system: Pichia kudriavzevii; assay: Antifungal activity against Candida krusei ATCC 6258 bloodstream forms assessed as time to achieve 50% fungal growth reduction at 0.5 mg/L by time-kill analysis
# [35] = system: Pichia kudriavzevii; assay: Antifungal activity against Candida krusei ATCC 6258 bloodstream forms assessed as time to achieve 99.9% fungal growth reduction at 2 mg/L by time-kill analysis
# [36] = system: Pichia kudriavzevii; assay: Antifungal activity against Candida krusei ATCC 6258 bloodstream forms assessed as time to achieve 90% fungal growth reduction at 8 mg/L by time-kill analysis
# [37] = system: Pichia kudriavzevii; assay: Antifungal activity against Candida krusei ATCC 6258 bloodstream forms assessed as time to achieve 99% fungal growth reduction at 2 mg/L by time-kill analysis
# [38] = system: Pichia kudriavzevii; assay: Fungicidal activity against Candida krusei CK18 bloodstream forms after 24 hrs by time-kill analysis; conditions: CK18, 24 h
# [39] = system: Pichia kudriavzevii; assay: Fungicidal activity against Candida krusei CY118 bloodstream forms after 24 hrs by time-kill analysis; conditions: CY118, 24 h
# [40] = system: Pichia kudriavzevii; assay: Antifungal activity against Candida krusei ATCC 6258 bloodstream forms assessed as time to achieve 99% fungal growth reduction at 8 mg/L by time-kill analysis
# [41] = system: Pichia kudriavzevii; assay: Antifungal activity against Candida krusei ATCC 6258 bloodstream forms assessed as time to achieve 99.9% fungal growth reduction at 32 mg/L by time-kill analysis
smiles,measurement,setting,value
CC[C@H](C)C[C@H](C)CCCCCCCCC(=O)N[C@H]1C[C@@H](O)[C@@H](NCCN)NC(=O)[C@@H]2[C@@H](O)CCN2C(=O)[C@H]([C@H](O)CCN)NC(=O)[C@H]([C@H](O)[C@@H](O)c2ccc(O)cc2)NC(=O)[C@@H]2C[C@@H](O)CN2C(=O)[C@H]([C@@H](C)O)NC1=O [CASPOFUNGIN],MFC50,[1],2 µg/mL
same,MFC90,[1],8 µg/mL
same,MFC,"[1]; Pichia kudriavzevii, ATCC 6258, 48 h",1 µg/mL
same,MFC,[2],8 µg/mL
same,MIC,[3],1 µg/mL
same,MIC50,[4],1 µg/mL
same,MIC90,[4],2 µg/mL
same,Time,[5],7.1 h
same,Time,[6],3.7 h
same,Activity,[7],inactive
same,Time,[8],27.6 h
same,MIC,[9],1 µg/mL
same,MFC,[10],2 µg/mL
same,MIC50,[11],1 µg/mL
same,MIC90,[11],2 µg/mL
same,MIC,[12],2 µg/mL
same,Time,[13],>48 h
same,MFC,[14],2 µg/mL
same,MIC,[15],1 µg/mL
same,Activity,[16],inactive
same,MIC,[17],4 µg/mL
same,Time,[18],2.1 h
same,MFC,[19],1 µg/mL
same,MIC,[20],0.8 µg/mL
same,MIC50,[20],1 µg/mL
same,MIC90,[20],2 µg/mL
same,MIC,[21],2 µg/mL
same,MFC,[22],1 µg/mL
same,Time,[23],>48 h
same,Activity,[24],inactive
same,Time,[25],12.5 h
same,MIC,[26],1 µg/mL
same,Time,[27],2.9 h
same,Time,[28],29.2 h
same,Time,[29],14.3 h
same,Activity,[30],inactive
same,MFC,[31],2 µg/mL
same,MIC50,[32],1 µg/mL
same,MIC90,[32],2 µg/mL
same,MIC,[33],1 µg/mL
same,Time,[34],8.3 h
same,Time,[35],37.4 h
same,Time,[36],9.7 h
same,Time,[37],24.9 h
same,MFC,[38],2 µg/mL
same,MFC,[39],> 64 µg/mL
same,Time,[40],19.5 h
same,Time,[41],21.4 h

# Reference: ChEMBL document CHEMBL1649488, “In vitro activities of echinocandins against Candida krusei determined by three methods: MIC and minimal fungicidal concentration measurements and time-kill studies” (2009)
